The values below come from ChEMBL document CHEMBL1201862, “PubChem BioAssay data set” (2004).

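These data come from cells grown in 96-well plates and exposed to compound for 48 hours at five concentrations. GI50: concentration for 50% inhibition of growth.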 Activity calls are given as the source filed them. Rule as the data show it: active = GI50 up to about 1.1 µM and inactive = higher. Bounds are passed on as bounds.

Among the test systems are A498; RPMI-8226; HCT-15; K562; UO-31; HOP-92; IGROV-1; SN12C; NCI-H522; M14; SNB-75; NCI-H460; CAKI-1; HOP-62; SK-OV-3; HT-29; COLO 205; RXF 393.
Holding throughout (assay): NCI tumour cell line growth inhibition, 48 h

In the case of `CCN1CCC(O)(c2ccc(Cl)c(Cl)c2)C(C(=O)c2ccc(Cl)c(Cl)c2)C1` (stereo unspecified), the GI50 in the assay with A498 is 21.5 µM (inactive); in the assay with RPMI-8226 it was 1.65 µM (inactive); in the assay on HCT-15, 18.8 µM; in the assay with K562, 18 µM (inactive); in the assay with UO-31 it was 17.3 µM (inactive); with HOP-92 it was 14.5 µM (inactive). For the same molecule, the GI50 with IGROV-1 was 20.6 µM (inactive); in the assay with SN12C it was 17.8 µM (inactive); in the assay on NCI-H522, 3.71 µM (inactive); in the assay on M14, 16.7 µM (inactive); in the assay with SNB-75, 14.3 µM (inactive); in the assay on NCI-H460, 21.3 µM (inactive). The GI50 in the assay on CAKI-1 was 18.3 µM (inactive); in the assay on HOP-62 it was 18.3 µM (inactive); in the assay on SK-OV-3, 18.2 µM (inactive); with HT-29, 18.2 µM (inactive); in the assay with COLO 205, 16.9 µM (inactive).
On to `CN(C)CCNC(=O)c1ccc(Cl)c2c(Nc3ccc(S(N)(=O)=O)cc3)c3ccccc3nc12`, for which the GI50 is 2.72 µM (inactive) in the assay on A498; 4.5 µM (inactive) with RPMI-8226; 2.84 µM in the assay on HCT-15; 0.612 µM (active) with K562; 2.38 µM (inactive) in the assay on UO-31; 1.43 µM (inactive) with HOP-92. The GI50 with IGROV-1 is 2.72 µM (inactive); with SN12C, 1.12 µM (active); in the assay with NCI-H522, 0.462 µM (active); in the assay with M14, 2.34 µM (inactive); in the assay on SNB-75, 1.33 µM (inactive); in the assay with NCI-H460 it was 0.706 µM (active). Moreover, the GI50 with CAKI-1 is 4.54 µM (inactive); in the assay on HOP-62 it was 8.45 µM (inactive); in the assay with SK-OV-3, 2.22 µM (inactive); with HT-29, 1.2 µM (inactive); with COLO 205 it was 0.61 µM (active).
`Nn1c(S)nnc1N/N=C1/C(=O)Nc2ccccc21`: the GI50 with A498 was 92.3 µM (inactive); with RPMI-8226 it was 63.2 µM (inactive); in the assay with HCT-15, 57.7 µM; in the assay on K562, 59 µM (inactive); in the assay on RXF 393, 27.7 µM (inactive); with UO-31, 47 µM (inactive). Besides, the GI50 in the assay on HOP-92 is 56.1 µM (inactive); in the assay on IGROV-1, 59.2 µM (inactive); with SN12C it was 50.6 µM (inactive); with NCI-H522, 44.9 µM (inactive); in the assay on M14, 62.1 µM (inactive); in the assay on NCI-H460 it was 54.7 µM (inactive). Moreover, the GI50 with CAKI-1 is 52.6 µM (inactive); with HOP-62, 64.9 µM (inactive); in the assay on SK-OV-3, 43.7 µM (inactive); with HT-29 it was > 100 µM (inactive); in the assay on COLO 205, > 100 µM (inactive).
Take `COC1C(OC(=O)c2ccc(C)[nH]2)C(O)C(Oc2ccc3c(O)c(NC(=O)c4c[nH]c(C(=O)Nc5c(O)c6ccc(OC7OC(C)(C)C(OC)C(OC(=O)c8ccc(C)[nH]8)C7O)c(C)c6oc5=O)c4C)c(=O)oc3c2C)OC1(C)C` (stereo unspecified): the GI50 in the assay on A498 is 1.76 µM (inactive); in the assay with RPMI-8226 it was 1.53 µM (inactive); in the assay with HCT-15, 1.88 µM; in the assay on K562 it was 2.84 µM (inactive); with RXF 393, 0.794 µM (active); in the assay on UO-31, 1.45 µM (inactive). Moreover, the GI50 with HOP-92 was 2.44 µM (inactive); in the assay on IGROV-1, 1.3 µM (inactive); in the assay with SN12C it was 1.54 µM (inactive); in the assay with SNB-75, 0.708 µM (active); in the assay with NCI-H460, 1.88 µM (inactive); in the assay on CAKI-1, 2.75 µM (inactive). The GI50 was 2.15 µM (inactive) in the assay on SK-OV-3, 3.9 µM (inactive) with HT-29 and 1.87 µM (inactive) in the assay on COLO 205.
Regarding `CCOC(=O)C(C(=O)OCC)S(C)(=O)=O`, the GI50 with A498, in the assay with RPMI-8226, in the assay on K562, in the assay on RXF 393, in the assay with UO-31 and with HOP-92 was > 100 µM (inactive) in each case. In addition, the GI50 in the assay on IGROV-1, in the assay with SN12C, with NCI-H522, in the assay with M14, with NCI-H460 and with HOP-62 was > 100 µM (inactive) throughout. Further, the GI50 in the assay with SK-OV-3, with HT-29 and in the assay with COLO 205 was > 100 µM (inactive) in each case.
As for `C[C@]12CC(C#N)C(=O)C(O)=C1CC[C@@H]1C2CC[C@@]2(C)C1CC[C@@H]2O` (stereo partly specified), the GI50 with A498 is 3.86 µM (inactive); with RPMI-8226, 7 µM (inactive); in the assay with HCT-15, 48.6 µM; with K562, 46.9 µM (inactive); in the assay with RXF 393 it was 19.1 µM (inactive); in the assay on UO-31, 10.1 µM (inactive). Besides, the GI50 in the assay with HOP-92 is 10.7 µM (inactive); in the assay on IGROV-1, 12.2 µM (inactive); in the assay on SN12C it was 60 µM (inactive); in the assay with M14, 65.5 µM (inactive); in the assay on SNB-75, 9.91 µM (inactive); in the assay on NCI-H460, 41.8 µM (inactive). In addition, the GI50 in the assay with HOP-62 is 80.4 µM (inactive); in the assay on SK-OV-3 it was 33.2 µM (inactive); in the assay on HT-29, > 100 µM (inactive); with COLO 205, 48.5 µM (inactive).
For `CCOC(=O)/C(=C/c1cccc(C#N)c1)N(CC)CC`, the GI50 in the assay with A498 was > 100 µM (inactive); with RPMI-8226, > 100 µM (inactive); in the assay on HCT-15, greater than 100 µM; in the assay with K562, > 100 µM (inactive); with UO-31, > 100 µM (inactive); with HOP-92, > 100 µM (inactive). Also, the GI50 with IGROV-1, in the assay with SN12C, with NCI-H522, in the assay on M14, in the assay on SNB-75 and in the assay with NCI-H460 was > 100 µM (inactive) each time. For the same molecule, the GI50 in the assay on CAKI-1, with HOP-62, in the assay with SK-OV-3, in the assay with HT-29 and in the assay on COLO 205 was > 100 µM (inactive) each time.
For `Cc1c(C(=N)N)oc2ccccc12`, the GI50 with A498, with K562, in the assay on RXF 393, with UO-31, in the assay with HOP-92 and with IGROV-1 was > 100 µM (inactive) throughout. The GI50 in the assay with SN12C is > 100 µM (inactive); in the assay on NCI-H522 it was > 100 µM (inactive); with M14 it was > 100 µM (inactive); in the assay on SNB-75, 79.6 µM (inactive); with NCI-H460, > 100 µM (inactive); in the assay on CAKI-1, > 100 µM (inactive). Also, the GI50 with HOP-62, in the assay with SK-OV-3, in the assay on HT-29 and with COLO 205 was > 100 µM (inactive) throughout.
Regarding `c1cncc(C2c3[nH]c4ccccc4c3CCN2CCN2CCCCC2)c1` (stereo unspecified), the GI50 in the assay on A498 is 70.8 µM (inactive); in the assay with RPMI-8226 it was 62.8 µM (inactive); with HCT-15, greater than 100 µM; in the assay with K562 it was 35.6 µM (inactive); with UO-31, 38.3 µM (inactive); with HOP-92, 30 µM (inactive). Besides, the GI50 in the assay on IGROV-1 was > 100 µM (inactive); in the assay with SN12C, > 100 µM (inactive); in the assay with NCI-H522 it was > 100 µM (inactive); in the assay with M14, 16.1 µM (inactive); with SNB-75, 43.6 µM (inactive); in the assay on NCI-H460, > 100 µM (inactive). For the same molecule, the GI50 with CAKI-1, in the assay with HOP-62, with SK-OV-3 and in the assay on HT-29 was > 100 µM (inactive) each time.
